We go through two molecules from patent US10543217B2, “Method of treating frailty” (Organext Research B.V., priority 2009, dated 2020).

What all share (assay type): cell-based
Assay [1] deals with human skeletal muscle cells (hSkMC1). In words: Proliferation of human skeletal muscle cells, batch hSkMC1 (resazurin assay). The note with it: for Effect on proliferation (FIG. 3a, in words): individual compounds and all 4 combinations, combinations P<0.001, except 100 nM nandrolone plus 100 nM P<0.05. The procedure: (§1) Two different batches of human skeletal muscle cells or satellite cells (hSkMC1—obtained from a healthy person—and hSkMC2—obtained from a healthy person) were obtained from PromoCell (Heidelberg, Germany) and cultured in flasks according to the instructions by the provider. Cells were harvested and stored in liquid nitrogen until used for the experiments. Cells were not used at passage number higher than 15. For the experiments cells were cultured at 37° C. and 5% CO2 at a density of 3,500-7,000 cells/cm2 in basal medium (PromoCell) plus the addition of 5% charcoal (Sigma-Aldrich) treated fetal bovine serum (FBS) (PAA, Germany) using 24-well plates (Costar) til about 80% confluency.
(§2) Medium and hormones were replaced on day 1, 4 and 7. Proliferation was measured using the resazurin assay (Stern-Straeter et al., 2008). Statistical analysis of the proliferation data was performed with the Student's t-test.
A general note: Alamar Blue is a resazurin reagent that responds to reducing activity.

Assay [2] concerns human skeletal muscle cells (hSkMC2). In words: Proliferation of human skeletal muscle cells, batch hSkMC2 (resazurin assay). The procedure:
as §1, §2

Assay [3] concerns vitamin D receptor expression in human skeletal muscle cells (hSkMC1). In words: Vitamin D receptor expression by flow cytometry, hSkMC1 cells. The settings on record: compared with hSkMC2, data not shown. The procedure:
as §1
(§3) Androgen and vitamin D receptor staining protocols with the subsequent visualization by flow cytometry methods were derived from the publications of Krishan et al. (2000) and Folgueira et al. (2000). […] All solutions further contained Tween 20 (Sigma Aldrich) as detergent to maintain the permeabilized status of the cells throughout the entire staining experiment. The staining in non-stimulated and stimulated cells were compared by determining the intensity of the staining in the cells as well as the staining in the % of cells. […] The increase in the % of stained cells beyond the setpoint of the marker (at 1% for background staining) was determined with and without hormonal treatment.
(In general: Flow cytometry measures light scatter and fluorescence of single cells or particles in a stream.)

Assay [4] has as its system vitamin D receptor (VD3R) expression in human skeletal muscle cells (hSkMC2). Put plainly: Vitamin D receptor expression by flow cytometry, hSkMC2 cells. The note with it: 5 days of treatment, flow cytometry (FIG. 2). The procedure:
as §1, §3

Molecules are shown by their SMILES.

`C=C1/C(=C\C=C2/CCC[C@]3(C)[C@@H]([C@H](C)CCCC(C)(C)O)CC[C@@H]23)C[C@@H](O)C[C@@H]1O` [dhvit D3, 1α,25-dihydroxyvitamin D3]: the “Percentage increase (% Δ) in proliferation compared to control” value in assay [1] (10 nM dhvit D3, 8 days) was 1%; in assay [1] (100 nM dhvit D3, 8 days) it was −5%; in assay [2] (10 nM dhvit D3, 8 days) it was 1%; in assay [2] (100 nM dhvit D3, 8 days), 8%. In addition, the “Effect on proliferation (FIG. 3a, in words)” value in assay [1] was “no effect on proliferation”. Moreover, in assay [2] (higher concentrations of 1α,25-dihydroxyvitamin D3, 4 combinations vs control P<0.05, except 100 nM nandrolone plus 10 nM P<0.001), the “Effect on proliferation (FIG. 3b, in words)” value is “an increase in proliferation”. The “Effect on vitamin D receptor expression” value in assay [3] was “less pronounced”.
On to `C[C@]12CC[C@H]3[C@@H](CCC4=CC(=O)CC[C@@H]43)[C@@H]1CC[C@@H]2O` [nandrolone], for which the “Percentage increase (% Δ) in proliferation compared to control” value in assay [1] (100 nM nandrolone, 8 days) was 3%; in assay [1] (1000 nM nandrolone, 8 days) it was 1%; in assay [2] (100 nM nandrolone, 8 days) it was 4%; in assay [2] (1000 nM nandrolone, 8 days), 1%. Besides, the “Effect on proliferation (FIG. 3a, in words)” value in assay [1] was “no effect on proliferation”. In assay [4], the “Change in number of cells with positive vitamin D receptor” value is “increases”. In assay [3], the “Effect on vitamin D receptor expression” value was “less pronounced”.
